# Measurements taken from patent US20210205292A1, “INHIBITORS OF CREB-CBP INTERACTION FOR TREATMENT OF LEUKEMIA” (The Board of Trustees of the Leland Stanford Junior …, priority 2016, published 2021).
# Legend:
# Format in all cases: cell-based
# [1] = system: HL60 (Human promyelocytic leukemia cell line); experiment: CellTiter Glo assay in HL60 cells
# Protocol: (§1) The compounds prepared according to the methods described herein and tested for activity in the CellTiter Glo assay in HL60 (Human promyelocytic leukemia cell line), Jukat (human T lymphocyte cell line for acute T cell leukemia) and/or Nalm6 (human ALL cell line) cells.
# (§2) Compounds were prepared according to the methods described herein and tested for activity in the CellTiter Glo assay in HL60 (Human promyelocytic leukemia cell line), Jukat (human T lymphocyte cell line for acute Tcell leukemia) and/or Nalm6 (human ALL cell line) cells.
# [2] = system: Jukat (human T lymphocyte cell line for acute T cell leukemia); experiment: CellTiter Glo assay in Jukat cells
# Protocol: as §1, §2
# [3] = system: Nalm6 (human ALL cell line); experiment: CellTiter Glo assay in Nalm6 cells
# Protocol: as §1, §2
SMILES,"IC50 ([1]; HL-60, second Table 4) [nM]",IC50 ([2]; second Table 4) [nM],"IC50 ([3]; NALM-6, second Table 4) [nM]","IC50 ([1]; HL-60, Table 5) [nM]",IC50 ([2]; Table 5) [nM],"IC50 ([3]; NALM-6, Table 5) [nM]"
N#Cc1ccc(NC(=O)c2ccccc2O)cc1 [Compound 1],1000 to 10000,–,–,–,–,–
N#Cc1ccc(NC(=O)c2cc(Br)ccc2O)cc1 [Compound 2],< 1000,–,–,–,–,–
N#Cc1ccc(NC(=O)c2cc(Cl)ccc2O)cc1 [Compound 3],< 1000,–,–,–,–,–
N#Cc1ccc(NC(=O)c2cc(F)ccc2O)cc1Cl [Compound 5],< 1000,–,–,–,–,–
Cc1cc(NC(=O)c2cc(F)ccc2O)ccc1C#N [Compound 6],< 1000,–,–,–,–,–
N#Cc1ccc(NC(=O)c2cc(Br)ccc2O)cc1Cl [Compound 7],< 1000,–,–,–,–,–
N#Cc1ccc(NC(=O)c2cc(F)ccc2O)cc1 [Compound 8],< 1000,–,–,–,–,–
N#Cc1ccc(NC(=O)c2ccc(Br)cc2O)cc1 [Compound 9],< 1000,–,–,–,–,–
N#Cc1ccc(NC(=O)c2ccc(F)cc2O)cc1 [Compound 10],< 1000,–,–,–,–,–
N#Cc1ccc(NC(=O)c2ccc(Br)cc2O)c(Cl)c1 [Compound 11],< 1000,–,–,–,–,–
N#Cc1ccc(NC(=O)c2ccc(Br)cc2O)c(F)c1 [Compound 12],< 1000,–,–,–,–,–
N#Cc1ccc(NC(=O)c2ccc(Br)cc2O)cc1Cl [Compound 13],< 1000,–,–,–,–,–
N#Cc1ccc(NC(=O)c2cc(-c3ccccc3)ccc2O)cc1 [Compound 15],1000 to 10000,< 1000,1000 to 10000,–,–,–
N#Cc1ccc(NC(=O)c2ccc(Cl)cc2O)cc1 [Compound 16],< 1000,–,–,–,–,–
N#Cc1ccc(NC(=O)c2ccc(C(F)(F)F)cc2O)cc1 [Compound 17],< 1000,< 1000,< 1000,–,–,–
Cc1ccc(NC(=O)c2cc(F)ccc2O)cc1C#N [Compound 19],1000 to 10000,–,–,–,–,–
N#Cc1cc(NC(=O)c2cc(F)ccc2O)ccc1F [Compound 20],1000 to 10000,1000 to 10000,1000 to 10000,–,–,–
Cc1cc(NC(=O)c2cc(F)ccc2O)ccc1[N+](=O)[O-] [Compound 21],< 1000,–,–,–,–,–
O=C(Nc1ccc([N+](=O)[O-])cc1Cl)c1cc(F)ccc1O [Compound 22],< 1000,–,–,–,–,–
O=C(Nc1ccc([N+](=O)[O-])cc1Cl)c1cc(Cl)ccc1O [Compound 23],< 1000,< 1000,< 1000,–,–,–
CC(=O)Oc1ccc(Cl)cc1C(=O)Nc1ccc([N+](=O)[O-])cc1Cl [Compound 24],< 1000,< 1000,< 1000,–,–,–
Cc1cc(NC(=O)c2cc(Cl)ccc2O)ccc1[N+](=O)[O-] [Compound 25],< 1000,–,–,–,–,–
O=C(Nc1ccc(Br)c(Cl)c1)c1cc(F)ccc1O [Compound 26],< 1000,–,–,–,–,–
CC(=O)Oc1ccc(F)cc1C(=O)Nc1ccc(Br)c(Cl)c1 [Compound 27],< 1000,< 1000,–,–,–,–
O=C(Nc1ccc(Br)c(Cl)c1)c1cc(Cl)ccc1O [Compound 30],< 1000,–,–,–,–,–
O=C(Nc1ccc(Cl)c(Cl)c1)c1cc(F)ccc1O [Compound 31],< 1000,< 1000,1000 to 10000,–,–,–

SMILES,"IC50 ([1]; HL-60, second Table 4) [nM]",IC50 ([2]; second Table 4) [nM],"IC50 ([3]; NALM-6, second Table 4) [nM]","IC50 ([1]; HL-60, Table 5) [nM]",IC50 ([2]; Table 5) [nM],"IC50 ([3]; NALM-6, Table 5) [nM]"
O=C(Nc1ccc(F)c(F)c1)c1cc(F)ccc1O [Compound 32],< 1000,< 1000,1000 to 10000,–,–,–
O=C(Nc1cccc(F)c1)c1cc(F)ccc1O [Compound 33],1000 to 10000,1000 to 10000,1000 to 10000,–,–,–
Cc1cc(NC(=O)c2cc(F)ccc2O)ccc1Cl [Compound 34],< 1000,–,–,–,–,–
Cc1cc(NC(=O)c2cc(Cl)ccc2O)ccc1Cl [Compound 35],< 1000,–,–,–,–,–
Cc1cc(Cl)ccc1NC(=O)c1cc(F)ccc1O [Compound 36],1000 to 10000,–,–,–,–,–
O=C(Nc1ccc(Cl)cc1F)c1cc(F)ccc1O [Compound 37],1000 to 10000,< 1000,1000 to 10000,–,–,–
O=C(Nc1ccc(Cl)cc1Cl)c1cc(F)ccc1O [Compound 38],< 1000,> 10000,1000 to 10000,–,–,–
O=C(Nc1ccc(F)cc1F)c1cc(F)ccc1O [Compound 39],1000 to 10000,1000 to 10000,1000 to 10000,–,–,–
O=C(Nc1cccc(F)c1F)c1cc(F)ccc1O [Compound 40],1000 to 10000,1000 to 10000,1000 to 10000,–,–,–
O=C(Nc1cc(F)cc(F)c1)c1cc(F)ccc1O [Compound 41],< 1000,–,–,–,–,–
O=C(Nc1cc(Cl)cc(Cl)c1)c1cc(F)ccc1O [Compound 42],< 1000,< 1000,1000 to 10000,–,–,–
O=C(Nc1cccc(Cl)c1)c1cc(F)ccc1O [Compound 43],1000 to 10000,1000 to 10000,1000 to 10000,–,–,–
O=C(Nc1ccc(C(F)(F)F)cc1)c1cc(F)ccc1O [Compound 44],< 1000,< 1000,< 1000,–,–,–
O=C(Nc1ccc(OC(F)(F)F)cc1)c1cc(F)ccc1O [Compound 45],< 1000,< 1000,1000 to 10000,–,–,–
O=C(Nc1ccc(OC(F)(F)F)c(Cl)c1)c1cc(F)ccc1O [Compound 46],< 1000,< 1000,< 1000,–,–,–
O=C(Nc1ccc(Cl)c(C(F)(F)F)c1)c1cc(F)ccc1O [Compound 47],< 1000,> 10000,< 1000,–,–,–
O=C(Nc1ccc(F)c(C(F)(F)F)c1)c1cc(F)ccc1O [Compound 48],< 1000,< 1000,1000 to 10000,–,–,–
Cc1ccc(NC(=O)c2cc(F)ccc2O)cc1C(F)(F)F [Compound 49],< 1000,1000 to 10000,1000 to 10000,–,–,–
O=C(Nc1cccc(C(F)(F)F)c1)c1cc(F)ccc1O [Compound 50],< 1000,< 1000,1000 to 10000,–,–,–
O=C(Nc1cc(C(F)(F)F)cc(C(F)(F)F)c1)c1cc(F)ccc1O [Compound 51],< 1000,< 1000,< 1000,–,–,–
O=C(Nc1cccc(OC(F)(F)F)c1)c1cc(F)ccc1O [Compound 52],< 1000,< 1000,1000 to 10000,–,–,–
O=C(Nc1ccc(-c2ccccc2)cc1)c1cc(F)ccc1O [Compound 53],1000 to 10000,–,–,–,–,–
COc1ccc(NC(=O)c2cc(F)ccc2O)cc1 [Compound 54],1000 to 10000,> 10000,> 10000,–,–,–
COc1cc(NC(=O)c2cc(F)ccc2O)ccc1F [Compound 55],1000 to 10000,–,–,–,–,–
Cc1cc(NC(=O)c2cc(F)ccc2O)ccc1F [Compound 56],1000 to 10000,< 1000,1000 to 10000,–,–,–
CCOC(=O)c1ccc(NC(=O)c2cc(F)ccc2O)cc1 [Compound 57],1000 to 10000,1000 to 10000,1000 to 10000,–,–,–

SMILES,"IC50 ([1]; HL-60, second Table 4) [nM]",IC50 ([2]; second Table 4) [nM],"IC50 ([3]; NALM-6, second Table 4) [nM]","IC50 ([1]; HL-60, Table 5) [nM]",IC50 ([2]; Table 5) [nM],"IC50 ([3]; NALM-6, Table 5) [nM]"
CCOC(=O)c1cccc(NC(=O)c2cc(F)ccc2O)c1 [Compound 58],< 1000,1000 to 10000,1000 to 10000,–,–,–
O=C(Nc1ccccc1F)c1cc(F)ccc1O [Compound 61],1000 to 10000,–,–,–,–,–
O=C(Nc1ccccc1C(F)(F)F)c1cc(F)ccc1O [Compound 62],1000 to 10000,–,–,–,–,–
Cc1ccc(C(F)(F)F)cc1NC(=O)c1cc(F)ccc1O [Compound 63],< 1000,< 1000,1000 to 10000,–,–,–
N#Cc1ccc(NC(=O)c2ccc3cccnc3c2O)cc1 [Compound 64],–,–,–,100 to 1000,100 to 1000,< 100
N#Cc1ccc(NC(=O)c2cc(-c3ccccc3)c3cccnc3c2O)cc1 [Compound 65],–,–,–,100 to 1000,100 to 1000,100 to 1000
O=C(Nc1ccc(C(F)(F)F)cc1)c1ccc2cccnc2c1O [Compound 66],–,–,–,100 to 1000,100 to 1000,100 to 1000
O=C(Nc1ccc(Cl)cc1)c1ccc2cccnc2c1O [Compound 67],–,–,–,100 to 1000,100 to 1000,100 to 1000
O=C(Nc1ccc(Br)c(Cl)c1)c1ccc2cccnc2c1O [Compound 68],–,–,–,100 to 1000,100 to 1000,100 to 1000
O=C(Nc1cc(F)cc(F)c1)c1ccc2cccnc2c1O [Compound 69],–,–,–,100 to 1000,100 to 1000,100 to 1000
O=C(Nc1cc(C(F)(F)F)cc(C(F)(F)F)c1)c1ccc2cccnc2c1O [Compound 70],–,–,–,1000 to 10000,100 to 1000,1000 to 10000
N#Cc1ccc(NC(=O)c2cc(Br)c3cccnc3c2O)cc1 [Compound 71],–,–,–,100 to 1000,< 100,< 100
N#Cc1ccc(NC(=O)c2cc(-c3ccco3)c3cccnc3c2O)cc1 [Compound 72],–,–,–,100 to 1000,100 to 1000,100 to 1000
Cc1cc(C(=O)Nc2ccc(C#N)cc2)c(O)c2ncccc12 [Compound 73],–,–,–,1000 to 10000,100 to 1000,100 to 1000
CC(=O)Oc1c(C(=O)Nc2ccc(C#N)cc2)ccc2cccnc12 [Compound 74],–,–,–,100 to 1000,–,–
N#Cc1ccc(NC(=O)c2ccc3cccnc3c2O)c(Cl)c1 [Compound 77],–,–,–,100 to 1000,100 to 1000,100 to 1000
Cc1cc(C#N)ccc1NC(=O)c1ccc2cccnc2c1O [Compound 78],–,–,–,100 to 1000,100 to 1000,< 100
Cc1cccc(Cl)c1NC(=O)c1ccc2cccnc2c1O [Compound 79],–,–,–,1000 to 10000,1000 to 10000,1000 to 10000
N#Cc1ccc(Cl)c(NC(=O)c2ccc3cccnc3c2O)c1 [Compound 80],–,–,–,100 to 1000,100 to 1000,100 to 1000
O=C(Nc1ccc(Cl)cc1Cl)c1ccc2cccnc2c1O [Compound 81],–,–,–,100 to 1000,100 to 1000,100 to 1000
O=C(Nc1c(Cl)cccc1Cl)c1ccc2cccnc2c1O [Compound 87],–,–,–,100 to 1000,–,–
N#Cc1ccc(C#N)c(NC(=O)c2ccc3cccnc3c2O)c1 [Compound 88],–,–,–,100 to 1000,–,–
Cc1ccc(NC(=O)c2ccc3cccnc3c2O)c(C)c1 [Compound 89],–,–,–,1000 to 10000,–,–
O=C(Nc1ccc([N+](=O)[O-])cc1)c1cc(F)ccc1O [Compound 160],< 1000,–,–,–,–,–
